Test results reported in patent publication US6251900A, “Heterocyclic compounds and antitumor agent containing the same as active ingredient” (Zenyaku Kogyo Kabushiki Kaisha, priority 1997, dated 2001).

Tests used:
MCF-7 cells = assay: Growth inhibition of MCF-7 human breast cancer cells, 72 h culture (Test 1); assay type: cell-based; conditions: MCF7, 37° C., read-out: 50% Growth inhibition concentrations (GI50)
Description: Used in the test were MCF-7 cells which were established from human breast cancer and were cultured routinely under the conditions of 37° C. and 5% CO2, in RPMI 1640 medium supplemented with 10% fetal calf serum, HEPES buffer solution (25 mM) and kanamycin (0.1 mg/ml). Single cell suspension was prepared by adding trypsin/EDTA to the medium so as to be adjusted to 4.0×10^4 cells/ml. Test compounds were dissolved or suspended in DMSO or RPMI 1640 medium at a concentration of 1.0×10^-4 -1.0×10^-9 M.
The cell suspension and the sample solution or suspension were filled in a 96-wells microplate at a rate of 0.1 ml of the former and 0.1 ml of the latter per well and cultured at 37° C. for 72 hours in 5% CO2.
50% Growth inhibition concentrations (GI50 μM) were calculated from growth inhibitions at various sample concentrations.

[1] = test system: M5076 mouse reticulum cell sarcoma cells; assay: Tumor growth inhibition, M5076 mouse reticulum cell sarcoma transplanted subcutaneously in BDF1 mice (Test 2); assay type: in vivo; conditions: abdominally administered for 9 days, tumor weight on day 21
Description: The treated group to which the test sample was administered consisted of seven mice while the control group consisted of ten mice. Six weeks old male mice (BDF1, 25±2.5 g) were employed as host animals.
M5076 mouse reticulum cell sarcoma cells routinely cultured in abdominal of C57BL/6 male mice were diluted with cold Hanks solution and 1.0×10^6 cells of them were transplanted subcutaneously into left breast of each mouse. The samples prepared by suspending test compounds in 1% hydroxypropyl cellulose (HPC) were abdominally administered for 9 days after the day after the transplantation. After 21 days passed from the transplantation of the tumor, the mice were killed and the tumors were extracted out to measure the tumor weights of the respective groups.
Effect of sample was calculated as tumor growth inhibition by the following formula:
Tumor Growth Inhibition (%)=(1-T/C)×100
T: tumor weight of group with sample administered
C: tumor weight of control group

[2] = Acute toxicity in BDF1 male mice (Test 3); conditions: mouse, in vivo, po, orally or abdominally administered, observation for 14 days
Description: The acute toxicity was determined by orally or abdominally administrating the compound 9 or 22 of the present invention, which was adjusted by distilled water added with 1% of hydroxypropyl cellulose, to BDF1 male mice (6-weeks-old, having a body weight of 25±2.5 g) and LD50 was obtained over observation for 14 days. As a result, it was found out that LD50 of any of the compounds was 400-800 mg/kg.

SMILES	GI50 (MCF-7 cells) [nM]	Tumor Growth Inhibition (%) ([1]; 100 mg/kg)	LD50 at 336 h [2] [mg/kg]	Tumor Growth Inhibition (%) ([1]; 200 mg/kg)	Tumor Growth Inhibition (%) ([1]; 70 mg/kg)
CN(C)c1nc(N(C)C)nc(N(C)C)n1 [compound B, hexamethylmelamine, reference compound]	> 100000	38.8	–	–	–
C[C@@H]1OCCN(c2cc(N3CCOCC3)nc(-n3cnc4ccccc43)n2)[C@H]1C (relative stereo) [compound 22, 2-(benzimidazol-1-yl)-4-(trans-2,3-dimethylmorpholino)-6-morpholinopyrimidine]	2200	83.8	400 to 800	–	–
C[C@@H]1OCCN(c2nc(N3CCOCC3)nc(-n3cnc4ccccc43)n2)[C@H]1C (relative stereo) [compound 9, 2-(benzimidazol-1-yl)-4-(trans-2,3-dimethylmorpholino)-6-morpholino-1,3,5-triazine]	1200	–	400 to 800	98.6	–
CC1(C)CN(c2nc(N3CCOCC3)nc(-n3cnc4ccccc43)n2)CCO1 [compound 11, 2-(benzimidazol-1-yl)-4-(2,2-dimethylmorpholino)-6-morpholino-1,3,5-triazine]	1700	–	–	88.3	–
c1cn(-c2nc(N3CCOCC3)nc(N3CCOCC3)n2)cn1 [compound A, 2-(imidazol-1-yl)-4,6-dimorpholino-1,3,5-triazine, reference compound]	20000	–	–	–	5.0

The next lines start with results.

GI50 (MCF-7 cells) [nM]	SMILES	Tumor Growth Inhibition (%) ([1]; 100 mg/kg)	LD50 at 336 h [2] [mg/kg]	Tumor Growth Inhibition (%) ([1]; 200 mg/kg)	Tumor Growth Inhibition (%) ([1]; 70 mg/kg)
3200	C[C@@H]1CN(c2cc(N3CCOCC3)nc(-n3cnc4ccccc43)n2)C[C@H](C)O1 [compound 19, 2-(benzimidazol-1-yl)-4-(cis-2,6-dimethyl-morpholino)-6-morpholinopyrimidine]	–	–	98.1	–
2900	C[C@@H]1CN(c2nc(N3CCOCC3)nc(-n3cnc4ccccc43)n2)C[C@H](C)O1 [compound 1, 2-(benzimidazol-1-yl)-4-(cis-2,6-dimethyl-morpholino)-6-morpholino-1,3,5-triazine]	–	–	94.7	–
